Where a name gives a salt, the structure may show the parent alone. Read-outs that look alike come from different tables or passages of the source.
Key:
[1] = in vitro; settings: PAMPA; for permeability level compared with metoprolol / permeation rate relative to the progesterone monomer: pH 6.8
Experimental: (§1) The present invention involves the following detection instruments: • Single-crystal X-ray diffractometer: Bruker P4, Mo target, \ω scan, 296.15K; • Fourier infrared spectrometer: PerkinElmer Frontier FT/IR Spectrometer, normal temperature, KBr pellets, wavelength of 4000 to 450 cm^−1; • Powder X-ray diffractometer: Rigaku D/max-25509 kw, CuKα radiation, graphite monochromator; • Differential scanning calorimetry analyzer: Mettler Toledo DSC 822e, heating rate of 10° C./min, nitrogen flow rate of 50 mL/min; • Dynamic vapour sorption analyzer: SMS DVS advantage, 25° C.; • Dissolution apparatus: Tianjin Tianda Tianfa Technology Co., Ltd. RC806D, stirring paddle method; • Drug permeation rate tester: Pion Inc μFlux™.
Since the pH of fasting intestinal fluid in a human body is 6.5 and the pH of blood is 7.4, in order to make the conditions under which the permeation rate was measured close to the environment of the human gastrointestinal tract, pH 6.8 phosphate buffer was selected as the medium in the experiment. 3 mg of progesterone monomers and cocrystals of progesterone equivalent to 3 mg of progesterone were accurately weighed, and respectively placed in a donor compartment that represents the gastrointestinal tract, and 20 ml of pH 6.8 phosphate buffer was accurately added. 20 ml of pH 7.4 ASB buffer was accurately added to a receptor compartment that represents blood. The two compartments were separated by a biomimetic membrane with an area of 1.54 cm^2. The biomimetic membrane was coated with 25 μl of simulated gastrointestinal liposomes for infiltration, which represents the cell membrane of the gastrointestinal tract. At the temperature of 37° C. and the stirring speed of 200 rpm, sampling was conducted for 4 h, with an interval of 60 s between each two sampling procedures. The drug concentration in the receptor compartment was measured with a fiber optic probe within the ultraviolet wavelength range of 250 to 350 nm. The artificial membrane permeation rate of the drug was calculated according to Formula 1 (J/Flux).
[formula] represents the rate of change of drug concentration in the receptor compartment per unit time (μg·mL^−1·min^−1); V is the volume of buffer in the receptor compartment (mL); A is the area of the biomimetic membrane (cm^2); and Ct is the initial concentration of the drug in the donor compartment (μg·mL^−1).
The level of drug permeability can be determined by comparing the permeability of the drug with that of metoprolol measured by the same method.

[2] = Determination of the dissolution rate (dissolution curves, stirring paddle method, HPLC); settings: for time at which the highest concentration was reached / highest value of concentration of progesterone on dissolution curve: 37±0.5° C.; for highest value of concentration of progesterone on dissolution curve: 50 to 100 rpm
Experimental: as §1
The two dissolution media are water and pH 1.2 hydrochloric acid solution, respectively. […] The content of progesterone at the wavelength of 241 nm was measured by the HPLC method, and the dissolution amount was calculated by the external standard method. Dissolution curves with time as the abscissa and the concentration of progesterone as the ordinate were respectively plotted, as shown in FIGS. 5 and 6.

[3] = Determination of hygroscopicity by dynamic vapour sorption analysis; assay type: physicochemical; settings: 25° C.
Experimental: The nitrogen flow rate was 200 ml/min, and the relative humidity, varied in a stepped manner by a change of 10%, increased from 20% to 80%, and then dropped to 0%.

[4] = test system: Female immature white rabbits; assay: Pharmacodynamic experiment of cocrystals of progesterone: rabbit body weight and uterine index; assay type: in vivo; settings: for Uterine index (weight of uterus / weight of rabbit): x ± s
Experimental: Female immature white rabbits were used and randomly divided into blank group, positive control group, low dose group, medium dose group and high dose group, with 10 rabbits in each group. The dose of progesterone that should be given to each rabbit is twice the clinical human dose of progesterone, and is calculated according to the rabbit's body weight. […] The intramuscular injections were performed for a consecutive 30 days. Weighing was performed on day 1 and day 30 respectively. A part of the uterine tissue 2 cm from the junction of the uterus and vagina in the direction of the ovary was cut and weighed. The uterine index was calculated by dividing the weight of the uterus by the weight of each rabbit.

[5] = pH 1.2 hydrochloric acid solution

Row | Papp at 4 h, 150 µg/mL [1] | time at which the highest concentration was reached [2, 5] | highest value of concentration of progesterone on dissolution curve [2, 5] | time at which the highest concentration was reached ([2]; water) | highest value of concentration of progesterone on dissolution curve ([2]; water) | permeability level compared with metoprolol [1] | solubility relative to the progesterone monomer [2] | solubility relative to the progesterone monomer ([2]; pH 1.2) | effective permeability (Pe) [1] | permeation rate (J, Flux) [1] | permeation rate relative to the progesterone monomer [1] | Compound | other results
1 | – | 30 min | 10.4 µg/mL | 90 min | 9.90 µg/mL | high permeability | 1.3 times | 1.3 times | 0.00146 cm/s | 0.28 μg·min^−1·cm^−2 | 0.9 times | CC(=O)[C@H]1CC[C@H]2[C@@H]3CCC4=CC(=O)CC[C@]4(C)[C@H]3CC[C@]12C.O=C(O)c1cccc([N+](=O)[O-])c1C(=O)O [progesterone-3-nitrophthalic acid cocrystal] | –
2 | – | 120 min | 8.77 µg/mL | 60 min | 9.06 µg/mL | high permeability | 1.2 times | 1.1 times | 0.000887 cm/s | 0.62 μg·min^−1·cm^−2 | 1.9 times | CC(=O)[C@H]1CC[C@H]2[C@@H]3CCC4=CC(=O)CC[C@]4(C)[C@H]3CC[C@]12C.O=Cc1ccc(B(O)O)cc1 [progesterone-4-formylbenzeneboronic acid cocrystal] | –

More lines, now with the values behind:

Row | Compound | Papp at 4 h, 150 µg/mL [1] | time at which the highest concentration was reached [2, 5] | highest value of concentration of progesterone on dissolution curve [2, 5] | time at which the highest concentration was reached ([2]; water) | highest value of concentration of progesterone on dissolution curve ([2]; water) | permeability level compared with metoprolol [1] | solubility relative to the progesterone monomer [2] | solubility relative to the progesterone monomer ([2]; pH 1.2) | effective permeability (Pe) [1] | permeation rate (J, Flux) [1] | permeation rate relative to the progesterone monomer [1] | other results
3 | COCCc1ccc(OCC(O)CNC(C)C)cc1 (stereo not shown) [metoprolol tartrate, reference compound] | 120 ×10⁻⁶ cm/s | – | – | – | – | – | – | – | – | – | – | –
4 | CC(=O)[C@H]1CC[C@H]2[C@@H]3CCC4=CC(=O)CC[C@]4(C)[C@H]3CC[C@]12C [progesterone, pregn-4-ene-3,20-dione] | 1110 ×10⁻⁶ cm/s | 120 min | 7.87 µg/mL | 120 min | 7.84 µg/mL | high permeability | – | – | – | – | – | permeation rate (J, Flux) ([1]; 4 h, 150 µg/mL): 0.32 μg·min^−1·cm^−2; hygroscopicity ([3]; dynamic vapour sorption): non-hygroscopic; change in relative mass (dynamic vapour sorption) ([3]; relative humidity 20% to 80% then to 0% in 10% steps): less than 0.2%
5 | progesterone-isophthalic acid cocrystal | – | – | – | – | – | – | – | – | – | – | – | Uterine index (weight of uterus / weight of rabbit) ([4]; 3.5 mg·kg^−1 intramuscular for 30 consecutive days, low dose group): 0.025 ± 0.009%; Uterine index (weight of uterus / weight of rabbit) ([4]; 7 mg·kg^−1 intramuscular for 30 consecutive days, medium dose group): 0.029 ± 0.009 %; Uterine index (weight of uterus / weight of rabbit) ([4]; 14 mg·kg^−1 intramuscular for 30 consecutive days (high dose group / positive control group)): 0.035 ± 0.008%; change of uterine index of rabbits as the dose increased ([4]; 3.5, 7 and 14 mg·kg^−1 intramuscular, 30 days): increasing trend; statistical difference in uterine index versus positive control group ([4]; high dose group, 14 mg·kg^−1): no significant difference; statistical difference in uterine index versus positive control group ([4]; low dose group, 3.5 mg·kg^−1): significant differences; statistical difference in uterine index versus positive control group ([4]; medium dose group, 7 mg·kg^−1): no significant difference

Reference: patent publication US11866459B2, “Cocrystal of progesterone and preparation method and use thereof” (NATIONAL INSTITUTES FOR FOOD AND DRUG CONTROL, priority 2020, dated 2024)
